Assay results published in ChEMBL document CHEMBL1201862, “PubChem BioAssay data set” (2004).
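Each compound was tested at five concentrations against cells in 96-well plates for 48 hours. GI50 = concentration required for 50% inhibition of growth.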 Activity calls are given as the source filed them. Rule as the data show it: active = GI50 up to about 1.1 µM and inactive = higher.

Key:
Experiment in all cases: NCI tumour cell line growth inhibition, 48 h
K562 = tested on: K562
LOX IMVI = tested on: LOX IMVI
SNB-19 = tested on: SNB-19
SK-OV-3 = tested on: SK-OV-3
OVCAR-4 = tested on: OVCAR-4
NCI-H522 = tested on: NCI-H522
HCT-15 = tested on: HCT-15
NCI-H23 = tested on: NCI-H23
HOP-92 = tested on: HOP-92
UACC-257 = tested on: UACC-257
SNB-75 = tested on: SNB-75
SW-620 = tested on: SW-620
UACC-62 = tested on: UACC-62
HL-60 = tested on: HL-60
HT-29 = tested on: HT-29
HCC 2998 = tested on: HCC 2998
UO-31 = tested on: UO-31
MDA-MB-435 = tested on: MDA-MB-435
RPMI-8226 = tested on: RPMI-8226
SF-268 = tested on: SF-268
OVCAR-5 = tested on: OVCAR-5
MOLT-4 = tested on: MOLT-4
OVCAR-8 = tested on: OVCAR-8
DU-145 = tested on: DU-145
COLO 205 = tested on: COLO 205
EKVX = tested on: EKVX
T47D = tested on: T47D
M14 = tested on: M14
CAKI-1 = tested on: CAKI-1
Malme-3M = tested on: Malme-3M
A549 = tested on: A549
ACHN = tested on: ACHN
CCRF-CEM = tested on: CCRF-CEM
SK-MEL-28 = tested on: SK-MEL-28
MCF7 = tested on: MCF7
SF-295 = tested on: SF-295
U-251 = tested on: U-251
NCI-H226 = tested on: NCI-H226
SK-MEL-2 = tested on: SK-MEL-2
MDA-MB-231 = tested on: MDA-MB-231
SF-539 = tested on: SF-539
NCI/ADR-RES = tested on: NCI/ADR-RES
IGROV-1 = tested on: IGROV-1
HOP-62 = tested on: HOP-62
SN12C = tested on: SN12C
MDA-N = tested on: MDA-N
NCI-H460 = tested on: NCI-H460
KM12 = tested on: KM12
BT-549 = tested on: BT-549
HCT-116 = tested on: HCT-116
PC-3 = tested on: PC-3
SK-MEL-5 = tested on: SK-MEL-5
Hs-578T = tested on: Hs-578T
TK-10 = tested on: TK-10
786-0 = tested on: 786-0
OVCAR-3 = tested on: OVCAR-3
RXF 393 = tested on: RXF 393
A498 = tested on: A498

Q: Which results are given for `CCN1CCc2sc3nc(S)n(C)c(=O)c3c2C1`?
A: GI50 (K562): > 100 µM (inactive); GI50 (LOX IMVI): > 100 µM (inactive); GI50 (SNB-19): > 100 µM (inactive); GI50 (SK-OV-3): > 100 µM (inactive); GI50 (OVCAR-4): > 100 µM (inactive); GI50 (NCI-H522): > 100 µM (inactive); GI50 (HCT-15): > 100 µM; GI50 (NCI-H23): > 100 µM (inactive); GI50 (HOP-92): > 100 µM (inactive); GI50 (UACC-257): > 100 µM (inactive); GI50 (SNB-75): > 100 µM (inactive); GI50 (SW-620): > 100 µM (inactive); GI50 (UACC-62): > 100 µM (inactive); GI50 (HL-60): < 0.01 µM (active); GI50 (HT-29): > 100 µM (inactive); GI50 (HCC 2998): > 100 µM (inactive); GI50 (UO-31): > 100 µM (inactive); GI50 (MDA-MB-435): > 100 µM (inactive); GI50 (RPMI-8226): > 100 µM (inactive); GI50 (SF-268): > 100 µM (inactive); GI50 (OVCAR-5): > 100 µM (inactive); GI50 (MOLT-4): > 100 µM (inactive); GI50 (OVCAR-8): > 100 µM (inactive); GI50 (DU-145): > 100 µM (inactive); GI50 (COLO 205): > 100 µM (inactive); GI50 (EKVX): > 100 µM (inactive); GI50 (T47D): > 100 µM (inactive); GI50 (M14): > 100 µM (inactive); GI50 (CAKI-1): > 100 µM (inactive); GI50 (Malme-3M): > 100 µM (inactive); GI50 (A549): > 100 µM (inactive); GI50 (ACHN): > 100 µM (inactive); GI50 (CCRF-CEM): < 0.01 µM (active); GI50 (SK-MEL-28): > 100 µM (inactive); GI50 (MCF7): > 100 µM (inactive); GI50 (SF-295): > 100 µM (inactive); GI50 (U-251): > 100 µM (inactive); GI50 (NCI-H226): > 100 µM (inactive); GI50 (SK-MEL-2): > 100 µM (inactive); GI50 (MDA-MB-231): > 100 µM (inactive); GI50 (SF-539): > 100 µM (inactive); GI50 (NCI/ADR-RES): > 100 µM (inactive); GI50 (IGROV-1): > 100 µM (inactive); GI50 (HOP-62): > 100 µM (inactive); GI50 (SN12C): > 100 µM (inactive); GI50 (MDA-N): > 100 µM (inactive); GI50 (NCI-H460): > 100 µM (inactive); GI50 (KM12): > 100 µM (inactive); GI50 (BT-549): > 100 µM (inactive); GI50 (HCT-116): > 100 µM (inactive); GI50 (PC-3): > 100 µM (inactive); GI50 (SK-MEL-5): > 100 µM (inactive); GI50 (Hs-578T): > 100 µM (inactive); GI50 (TK-10): > 100 µM (inactive); GI50 (786-0): > 100 µM (inactive); GI50 (OVCAR-3): > 100 µM (inactive); GI50 (RXF 393): > 100 µM (inactive); GI50 (A498): > 100 µM (inactive)
